Experimental data: patent publication US20110312898A1, “PROPHYLACTIC / THERAPEUTIC AGENT FOR CANCER” (Takeda Pharmaceutical Company Limited, priority 2008, published 2011)
Square brackets hold non-standard residues; d marks the D form. Arg(Me) = CNC(=N)NCCC[C@H](N)C(=O)O; Hyp = O=C(O)[C@@H]1C[C@@H](O)CN1; azaGly = NNC(=O)O

What was measured:
[1] = test system: DU145; assay: Antitumor activity in DU145 tumor-bearing male rat model; type: in vivo; conditions: microcapsule powder s.c. 10, 30 and 60 days after transplantation; No. 550 10 mg/kg, No. 723 1 or 10 mg/kg; 74 days after transplantation; vs surgically castrated group
Experimental: Evaluation of antitumor activity of the metastin peptide derivative in DU145 tumor-bearing male rat model
Antitumor activity of Compound No. 550 and Compound No. 723 against a DU145 tumor-bearing male rat model was evaluated. Specifically, 1×10^6 cells/100 μL suspension of DU145 (androgen-independent cell line, GPR54 highly expressing cell line, ATCC) was mixed with 100 μL of basement membrane matrix: Matrigel (trade name, BD Biosciences), and the obtained mixture was transplanted under the abdominal skin of 7-week-old F344/NJc1-rnu/rnu male rats (CLEA Japan, Inc.) which had been etherized. 10 days after the transplantation, the rats in which the volume of subcutaneous tumor reached 200 mm^3 were divided into 4 groups (Groups A-D, 10 rats for each group). […]
Regarding Group D, the rats were surgically castrated and used as the negative control group. […] 74 days after the transplantation of DU145 cells, the tumor volume (longer diameter×shorter diameter×shorter diameter/2) was measured. […]

[2] = test system: human prostate cancer cell line VCaP; assay: Growth-inhibitory activity on VCaP spheroids (CellTiter-Glo); type: cell-based; conditions: 10% DCC-FCS
Experimental: Evaluation of the growth-inhibitory activity of the metastin peptide derivative using human prostate cancer cell line VCaP
Regarding Compound No. 723, the inhibitory activity on androgen-independent growth of human prostate cancer cell line VCaP (CRL-2876, American Type Culture Collection) was evaluated. […] in the state of three-dimensional culture (spheroid) was used in the evaluation. Specifically, VCaP cells were suspended in a DMEM medium (Ref. No. 11995, Invitrogen) containing 10% FCS (Cat. No. 171012, Cell Culture Bioscience) to set the concentration to 1.5×10^6 cells/mL. The obtained suspension was spotted on a cover of a tissue culture dish (Ref. No. 353003, FALCON) (20 μL for each) to perform Hanging drop culture (3×10^4 cells/drop). In order to prevent drying, 10 mL of DPBS (Ref. No. 14190, Invitrogen) was added to the culture dish. […]
(§1) Cell growth was quantified 9 days after the start of the treatment with Compound No. 723 by measuring the chemical luminescence evoked by cellular ATP using CellTiter-Glo Luminescent Cell Viability Assay (Promega). Wallac 1420 ARVO MX/Light (Parkin Elmer) was used for the measurement of the luminescence intensity.

[3] = test system: Dunning R3327-G cells; assay: Androgen-independent antitumor effects, Dunning R3327-G cells implanted in orchiectomized Copenhagen rats; type: in vivo, rat; conditions: 50 nmol/kg/W, subcutaneous ALZET pump; day 52 following the start of dosing; compared with solvent group
Description: Dunning R3327-G cells, an androgen-sensitive rat prostate cancer cell line, were implanted into orchiectomized Copenhagen rats, and the androgen-independent antitumor effects by Compound No. 550 and Compound No. 723 were investigated.
R3327-G cells (7×10^6) were implanted subcutaneously in 10-week-old orchiectomized male Copenhagen rats. Fifty days after implantation, the rats were divided into groups based on the tumor volume, and were then assigned to a Compound 550—50 nmol/kg/W group, a Compound No. 723—50 nmol/kg/W group, and a solution group (each group consisting of 10 animals). The dose was calculated based on the mean weight of the animals on the day that dosing was begun. Administration was carried out by subcutaneous implantation in the dorsal region using an ALZET pump. The tumor diameter was measured on days 50, 65, 71, 78, 91 and 102 following cell implantation (days 0, 15, 21, 28, 41 and 52 following the start of dosing). The tumor volume (mm^3) was calculated as follows: major axis×minor axis^2÷2. Owing to deaths and the euthanization of animals in the course of the tests, on day 52 following the start of dosing (day 102 after transplantation), only six animals remained in the solution group and only seven animals remained in the Compound No. 723 group.

[4] = test system: human prostate cancer cell line 22Rv1; assay: Growth-inhibitory activity on 22Rv1 spheroids (CellTiter-Glo); type: cell-based; conditions: 10% DCC-FCS
Experimental: Evaluation of the growth-inhibitory activity of the metastin peptide derivative using human prostate cancer cell line 22Rv1
Regarding Compound No. 723, the growth-inhibitory activity on androgen-independent human prostate cancer cell line 22Rv1 (CRL-2505, American Type Culture Collection) was evaluated. […] in the state of three-dimensional culture (spheroid) was used in the evaluation. Specifically, 22Rv1 cells were suspended in a RPMI1640 medium (Ref. No. 22400, Invitrogen) containing 10% FCS (Cat. No. 171012, Cell Culture Bioscience) to set the concentration to 1.5×10^6 cells/mL. The obtained suspension was spotted on a cover of a tissue culture dish (Ref. No. 353003, FALCON) (20 μL for each) to perform Hanging drop culture ([…]). In order to prevent drying, 10 mL of DPBS (Ref. No. 14190, Invitrogen) was added to the culture dish. […]
as §1

| Substance | antitumor effects (tumor volume) [1] | Luminescence intensity ([2]; 1 μM supplied every 12 hours for 8 days, 9 days after start of treatment, cellular ATP, n = 18, Control 564458 ± 27628) | androgen-independent growth of human prostate cancer cells (VCaP) ([2]; 1 μM, vs control) | antitumor effects (tumor volume) [3] | Luminescence intensity ([4]; 1 μM supplied every 12 hours for 8 days, 9 days after start of treatment, cellular ATP, n = 18, Control 483469 ± 55917) | growth of androgen-independent human prostate cancer cells (22Rv1) in the absence of androgen ([4]; 1 μM, vs control) |
| --- | --- | --- | --- | --- | --- | --- |
| Ac-D-Tyr-Hyp-Asn-Thr-Phe-AzaGly-Leu-Arg(Me)-Trp-NH2 (Ac-[dY][Hyp]NTF[azaGly]L[Arg(Me)]W-NH2) [Compound No. 723] | antitumor effects more than the surgical castration | 507191 ± 73146 | significantly reduced the androgen-independent growth | significant antitumor effects | 401291 ± 40565 | significantly reduced the growth |
| Ac-[dY][dW]NTF[azaGly]L[Arg(Me)]W-NH2 [Compound No. 550] | antitumor effects more than the surgical castration | – | – | significant antitumor effects | – | – |
